Source: US20220411397A1, “ANALOGUES OF N-ACYL-HOMOSERINE LACTONES AND PHARMACEUTICAL COMPOSITION COMPRISING SAME” (SORBONNE UNIVERSITE, priority 2019, published 2022)

Experiments:
Raw 264.7 murine cells = assay: Stimulation of Raw 264.7 murine cells by IFN-γ/LPS, IL-6 secretion (ELISA); assay type: cell-based; settings: for activity on IFN-γ/LPS-stimulated Raw 264.7 cells compared with natural 3-oxo-C12-HSL: 1-50 μM range
Source text: 1.1.2. The Raw 264.7 Cell Line • The Raw 264.7 cell line consists of murine cells of macrophage type derived from cell line transformed by the virus of the Abelson leukaemia and providing from BALB/c mice. This cell line is very often used as a model of macrophages in vitro. The Raw 264.7 cells are capable of a phagocytosis and a pinocytosis, can kill the target cells by antibody-dependent cytotoxicity, and secrete a wide range of inflammatory cytokines as well as nitric oxide (NO). In addition, the Raw 264.7 cells are a very convenient cell line: the cells grow rapidly, appreciate the small diameter wells, and should be used before confluence. These conditions make it an advantageous line for the compound screening.
The cells were used between the passages 13 and 26. • The Raw 264.7 cells used are from the ATCC bank. They were grown in DMEM supplemented with 10% heat-inactivated foetal calf serum and 1% L-glutamine to 200 mM, and maintained at 37° C. with a 5% CO2/air atmosphere. The medium was changed every two days.
1.2.2. Stimulation of Raw 264.7 with LIPS and IFN-γ • Raw 264.7 cells were seeded in 12-well plates at 75,000 cells/well, or 24-well plates at 40,000 cells/well, to reach 80-90% confluence after 3 days of culture. […] The cells were harvested by scraping in 100 μL of PBS 1×/well and stored at −80° C. before the quantification of the total protein. […]
1.2.5. Quantification of the Murine Cytokines • The levels of IL-6 murine cytokines produced by cells were determined in cell supernatants or lysates using the commercially available “BD OptEIA Mouse IL-6 ELISA Set” from BD Biosciences (San Jose, Calif., USA, ref. 555240). All the ELISA kits were used according to the instructions of the manufacturer. • The cytokine rates were first normalized to the protein content determined in the corresponding cell lysates. […]

Caco-2/TC7 cells = assay: Stimulation of Caco-2/TC7 cells by IL-1β, IL-8 secretion (ELISA); assay type: cell-based, human
Source text: 1.1.1. The Caco-2/TC7 Cell Line • The Caco-2 cell line is derived from a human colon adenocarcinoma and represents a cell culture model of enterocytes lining the epithelium of the small intestinal. […] During the exponential growth phase (from seeding to confluence), the cells remain undifferentiated. At confluence, they can spontaneously (in the absence of differentiation inducers) differentiate and progressively polarize. The differentiation process, which is a growth-related mechanism, is maximal at the end of confluence (stationary phase of the growth curve). • The cells develop a brush border at the apical pole containing microvilli and with characteristic enterocytic enzymes, such as hydrolases. • In accordance with the published literature, the Caco-2/TC7 cells in our experiments were seeded at 10^5 cells/well (equivalent to 10-12×10^3 cells/cm^2) in 6-well plastic culture plates. The cells were maintained in a glucose-rich medium (high glucose in the DMEM GlutaMAX medium 4.5 g/I glucose) supplemented with 20% heat-inactivated foetal calf serum, 1% nonessential amino acids NEAA, and 1% penicillin streptomycin. The cells were grown at 37° C. in a 10% CO2/air atmosphere. The medium was changed every day. Under these conditions, the cells were confluent on day 6. On day 17, the cells were serum-starved, and were used on day 18.
1.2.1. Stimulation of Caco-2/TC7 with Cytokines • The Caco-2/TC7 cells were seeded in 6-well plates at 100,000 cells/well and grown for 18 days. On day 17, the cells were serum-starved, which means that the cell medium was replaced with a foetal calf serum-free medium, and used on day 18. • The stimulation medium was composed of a medium referred to as “starvation medium”, i.e. without foetal calf serum (DMEM GlutaMAX, 1% NEAA, 1% penicillin-streptomycin) with 100 μM of 2-HQ. The cells were incubated for 18 h at 37° C. with 2 ml of stimulation medium containing 0.1% DMSO (negative control) or stimulation medium containing the compounds tested at desired concentrations, with or without proinflammatory cytokines to induce an inflammation. To induce the inflammation, either the IL-1β at 25 ng/ml or the combination of TNF-α and IFN-γ at 50 ng/ml each were used. After 18 h, the supernatants were collected and stored at −80° C. before analysis by ELISA test. The cells were washed with 1 ml of PBS 1×/well, and lysed in 100 μl of PBS 1× containing 1% Triton X-100. The cells were harvested by scraping and stored at −80° C. before the quantification of the protein. The dosing of the LDH was performed immediately before freezing. • All the experiments on the cells were performed in triplicates.
1.2.4. Quantification of the Human Cytokines by ELISA • The levels of the proinflammatory cytokine IL-8 produced by the cells were determined in the cell supernatants and/or cell lysates using the commercially available IL-8 ELISA detection kit (Duoset Human C×CL8/IL-8, ref. DY208) provided by R & D Systems (Minneapolis, Minn., USA) according to the instructions of the manufacturer. • All the cytokine levels were first normalized to the protein content determined in the corresponding cell lysates. Then, to compare the experiments, they could be further normalized using the activated control condition (DMSO+cytokines) as the 100% response.

SMILES | activity on IFN-γ/LPS-stimulated Raw 264.7 cells compared with natural 3-oxo-C12-HSL (Raw 264.7 murine cells) | activity on IL-1β-stimulated Caco-2/TC7 cells compared with natural 3-oxo-C12 HSL (Caco-2/TC7 cells; 1-50 μM range) | activity on IFN-γ/LPS-stimulated Raw 264.7 cells compared with natural 3-oxo-C12 HSL (Raw 264.7 murine cells; 10-50 μM range) | activity on IL-1β-stimulated Caco-2/TC7 cells compared with natural 3-oxo-C12 HSL (Caco-2/TC7 cells; 10-100 μM range)
CCCCCCCCCC(=O)CC(=O)N[C@H]1CCCC[C@@H]1O [I-2, N-[(1S,2S)-2-hydroxycyclohexyl]-3-oxo-dodecanamide] | more active than the reference molecule 3-oxo-C12-HSL | an activity equivalent to that of the natural 3-oxo-C12 HSL |  | 
CCCCCCCCCC(=O)CC(=O)N[C@H]1CCCC[C@H]1O [I-4, N-[(1S,2R)-2-hydroxycyclohexyl]-3-oxo-dodecanamide] | a higher activity than the natural 3-oxo-C12 HSL | an activity equivalent to that of the natural 3-oxo-C12 HSL |  | 
CCCCCCCCCC(=O)CC(=O)Nc1cc(Cl)ccc1O [I-6, N-(5-chloro-2-hydroxyphenyl)-3-oxododecanamide] |  |  | a significantly higher activity than that of the natural 3-oxo-C12 HSL | a significantly higher activity than that of the natural 3-oxo-C12 HSL
